Data reported in paper PMC2777267, “Crystal Structures of Wzb of Escherichia coli and CpsB of Streptococcus pneumoniae, Representatives of Two Families of Tyrosine Phosphatases that Regulate Capsule Assembly” (Journal of Molecular Biology, 2009).

Key:
Cps4B [1] = target: T1, Cps4B (Streptococcus pneumoniae, UniProt Q9AHD4); assay: absorbance at […] nm; assay type: biochemical; design: gene cpsB; recombinant, produced as described earlier; PHP-fold metal-dependent phosphatase with three active-site metals; 1 molecule per asymmetric unit; settings: 25 mM Tris-Cl pH 8.0, 50 mM NaCl, 2.5 mM pNPP, room temperature; 0.5 mM Cu2+, Co2+ or Mn2+ added
Cps4B [2] = target: T1, Cps4B; design: gene cpsB; settings: active site, bound to three metals, Arg139 and Arg206; soak up to 50 mM phosphate

T1 sequence (Q9AHD4 whole entry, looked up): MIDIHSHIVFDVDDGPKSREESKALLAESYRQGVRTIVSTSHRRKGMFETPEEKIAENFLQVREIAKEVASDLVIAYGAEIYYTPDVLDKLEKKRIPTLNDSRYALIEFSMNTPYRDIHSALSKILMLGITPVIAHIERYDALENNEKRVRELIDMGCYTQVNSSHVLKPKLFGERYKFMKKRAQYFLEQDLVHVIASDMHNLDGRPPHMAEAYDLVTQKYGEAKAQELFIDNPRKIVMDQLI

In the case of `O=[N+]([O-])c1ccc(OP(=O)(O)O)cc1` [para-nitrophenylphosphate], the “absorbance at 405 nm” value (Cps4B [1]) is reported as “it is a relatively poor catalyst with artificial substrate para-nitrophenylphosphate (pNPP)”.
In the case of `O=P(O)(O)O` [phosphate], the “X-ray crystal structure, 2.2 A, phosphate soak” value (Cps4B [2]) is reported as “The phosphate is tightly bound to the active site by a multitude of interactions”.
